Entries after “also recorded” stand apart in the source; their conditions may differ.
How the values were obtained:
[1] = system: CQ-resistant malaria; details: cited from earlier work; for activity against malaria / CQ-resistant malaria (in words): literature
[2] = system: P. falciparum clone D-6 (Sierra Leone); type: cell-based, Plasmodium falciparum; details: D-6 clone (resistant to mefloquine)
Experimental: (§1) In vitro activity against P. falciparum was determined using a modification of the semiautomated microdilution technique of Desjardins et al. (1979) and Milhous et al. (1985). Two P. falciparum malaria parasite clones, designated as Sierra Leone (D-6) and Indochina (W-2), are used in susceptibility testing. The former is resistant to mefloquine, and the latter to CQ, pyrimethamine, sulfadoxine, and quinine. Test compounds are dissolved in dimethylsulfoxide, and solutions serially diluted with culture media. Erythrocytes with 0.25 to 0.5% parasitemia are added to each well of a 96-well microdilution plate to give a final hematocrit of 1.5%. […] Results are reported as […] (ng/mL) values. For a complete description of this assay, see Milhous et al. (1985) and Lin et al. (1987).

[3] = system: P. falciparum clone W-2 (Indochina); type: cell-based, Plasmodium falciparum
Experimental: as §1

[4] = system: P. berghei (strain KBG 173); test: In vivo activity against P. berghei in mice, single subcutaneous dose 3 days after infection; parameters: species or system Plasmodium berghei; mice
Experimental: In vivo activity against P. berghei was obtained against a drug-sensitive strain of P. berghei (strain KBG 173) (Osdene et al., 1967). Each test compound is administered subcutaneous to five male mice per dilution in a single subcutaneous dose 3 days after infection. Results are expressed in T-C values which indicate the mean survival time of the treated mice beyond that of the control animals; untreated mice survive on average 6.2 days. Compounds are classified as active (A) when the mean survival time of the treated mice is twice that of the controls (>6.2 days), and curative (C) when one or more test animals live 60 days post-infection. Deaths from 0-2 days post-treatment are attributed to toxicity (T).

[5] = system: P. falciparum; test: In vitro activity against P. falciparum (both clones, D-6 and W-2); type: cell-based, Plasmodium falciparum; details: for Resistance Index: IC50 (W2)/IC50 (D6) ratio; for IC50: Plasmodium falciparum, clone not specified; for antimalarial activity (in words): general statement, refers to Table I
Experimental: as §1

[6] = 40 mg/kg s.c., single dose 3 days post infection, n = 5
[7] = 160 mg/kg s.c., single dose 3 days post infection, n = 5
[8] = 640 mg/kg s.c., single dose 3 days post infection, n = 5
[9] = compared to CQ, Li et al., 1981a, Lin et al., 1982

Row | Structure (SMILES) | P. falciparum IC50 (nM) D-6 [2] [nM] | P. falciparum IC50 (nM) W-2 [3] [nM] | P. berghei T-C [4, 6] [days] | P. berghei T-C [4, 7] [days] | Resistance Index [5] | IC50 [5] [nM] | in vivo activity against P. berghei (in words) [4] | other results
1 | OC(c1cc(C(F)(F)F)nc2c(C(F)(F)F)cccc12)C1CCCCN1 (stereo not drawn) [mefloquine] | – | – | – | – | – | – | – | activity against malaria / CQ-resistant malaria (in words) [1]: active to various extents against CQ-resistant malaria
2 | Clc1ccc2c(NCCCCCCCNc3ccnc4cc(Cl)ccc34)ccnc2c1 [Compound 9, N^1, N^7 -Bis(7-chloroquinolin-4-Yl)heptane-1,7-diamine] | 1.9 | 4.3 | 2.6 | 7.2 | 2.3 | < 6 | – | –
3 | Clc1ccc2c(N[C@@H]3CCCC[C@H]3Nc3ccnc4cc(Cl)ccc34)ccnc2c1 (relative stereo) [Compound 3, ±-trans-N^1,N^2 -Bis (7-chloroquinolin-4-Yl) cyclohexane-1,2-diamine] | 1.0 | 1.4 | 8.5 | – | 1.4 | < 6 | either active or curative | mice cured ([4]; 160 mg/kg): 4/5; mice cured ([4]; 320 mg/kg): 5/5; in vitro activity against P. falciparum (in words) [5]: most potent bisquinoline in vitro; antimalarial activity (in words) [5]: exceptional activity
4 | Clc1ccc2c(NCCCCCCCCCCNc3ccnc4cc(Cl)ccc34)ccnc2c1 [Compound 12, N^1, N^10 -Bis(7-chloroquinolin-4-yl)decane-l,10-diamine] | 5.7 | 3.4 | 0.2 | 0.2 | 0.6 | – | – | P. berghei T-C [4, 8]: 0.6 days
5 | CCN(CC)CCCC(C)Nc1ccnc2cc(Cl)ccc12 (stereo not drawn) [CQ, chloroquine, reference compound] | – | – | – | – | 11.2 | – | – | P. berghei T-C ([4]; CQ, 40 mg/kg s.c., average of ten best data sets from WRAIR): 8.7 days
6 | OC(CN1CCN(c2ccnc3cc(Cl)ccc23)CC1)CN1CCN(c2ccnc3cc(Cl)ccc23)CC1 [hydroxypiperaquine] | – | – | – | – | – | – | – | duration of action [1, 9]: longer duration of action; toxicity [1, 9]: less toxicity when compared to CQ; activity against malaria / CQ-resistant malaria (in words) [1]: active against malaria; also recorded: very effective against CQ-resistant malaria in China
7 | Clc1ccc2c(NCCCCCCCCCCCCNc3ccnc4cc(Cl)ccc34)ccnc2c1 [Compound 13, N^1 N^12 -Bis(7-chloroquinolin-4-yl)dodecane-1,12-diamine] | 59.7 | 30.8 | 0.0 | -0.2 | 0.5 | – | without activity in vivo; also recorded: inactive in both screens | P. berghei T-C [4, 8]: 0.0 days; in vitro activity against P. falciparum (in words) [5]: approximately an order of magnitude less potent in vitro; also recorded: inactive in both screens
8 | CCN(CC)Cc1cc(Nc2ccnc3cc(Cl)ccc23)ccc1OC(=O)CCC(=O)Oc1ccc(Nc2ccnc3cc(Cl)ccc23)cc1CN(CC)CC [succinic acid diester of amodiaquine] | – | – | – | – | – | – | – | activity against malaria / CQ-resistant malaria (in words) [1]: inactive against malaria
9 | Clc1ccc2c(NCCCCCCNc3ccnc4cc(Cl)ccc34)ccnc2c1 [Compound 8, N^1, N^6 -Bis(7-chloroquinolin-4-yl)hexane-1,6-diamine] | 21.1 | 23.4 | 0.4 | 3.9 | 1.1 | – | – | –
10 | Clc1ccc2c(NCCCCNc3ccnc4cc(Cl)ccc34)ccnc2c1 [Compound 5, N1,N4 -Bis(7-chloroquinolin-4-yl)butane-1,4-diamine] | 387 | 80.9 | 0.5 | 2.3 | 0.2 | – | without activity in vivo; also recorded: inactive in both screens | P. berghei T-C [4, 8]: 5.6 days; in vitro activity against P. falciparum (in words) [5]: approximately an order of magnitude less potent in vitro; also recorded: inactive in both screens
11 | CC(CCCNc1ccnc2cc(Cl)ccc12)CNc1ccnc2cc(Cl)ccc12 (stereo not drawn) [Compound 7, N^1, N^5 -Bis(7-chloroquinolin-4-yl)-2-methylpentane-1,5-diamine] | 2.7 | 3.0 | 1.2 | 3.6 | 1.1 | < 6 | either active or curative | antimalarial activity (in words) [5]: improved activity
12 | CCN(CC)Cc1cc(Nc2ccnc3cc(Cl)ccc23)ccc1O [amodiaquine] | – | – | – | – | – | – | – | activity against malaria / CQ-resistant malaria (in words) [1]: active to various extents against CQ-resistant malaria
13 | Clc1ccc2c(NCCCCCCCCCNc3ccnc4cc(Cl)ccc34)ccnc2c1 [Compound 11, N^1, N^9 -Bis(7-chloroquinolin-4-yl)nonane-1,9-diamine] | 3.0 | 2.3 | 3.1 | 7.4 | 0.8 | < 6 | – | P. berghei activity class (A = active, C = curative, with number of mice) ([4]; 640 mg/kg s.c., single dose, n = 5): A (active (A) when the mean survival time of the treated mice is twice that of the controls (>6.2 days))
14 | Clc1ccc2c(NCCCNc3ccnc4cc(Cl)ccc34)ccnc2c1 [Compound 4, N^1,N^3 -Bis(7-chloroquinolin-4-yl)propane1,3-diamine] | 15.1 | 82.9 | 0.2 | 0.4 | 5.5 | – | without activity in vivo; also recorded: inactive in both screens | P. berghei T-C [4, 8]: 1.2 days; in vitro activity against P. falciparum (in words) [5]: approximately an order of magnitude less potent in vitro; also recorded: inactive in both screens
15 | CC(CNc1ccnc2cc(Cl)ccc12)Nc1ccnc2cc(Cl)ccc12 (stereo not drawn) [Compound 2, N1,N2 -Bis(7-chloroquinolin-4-yl)propane1,2-diamine] | 3.5 | 3.9 | 3.4 | 5.7 | 1.1 | < 6 | either active or curative | antimalarial activity (in words) [5]: improved activity
16 | Clc1ccc2c(NCCCCCNc3ccnc4cc(Cl)ccc34)ccnc2c1 [Compound 6, N^1, N^5 -Bis(7-chloroquinolin-4-yl)pentane-1,5-diamine] | 2.5 | 3.8 | 1.0 | 5.1 | 1.5 | < 6 | either active or curative | –
17 | Clc1ccc2c(NCCCCCCCCNc3ccnc4cc(Cl)ccc34)ccnc2c1 [Compound 10, N^1, N^8 -Bis(7-chloroquinolin-4-yl)octane-1,8diamine] | 5.6 | 3.1 | -0.2 | 1.0 | 0.6 | < 6 | – | –
18 | C=C[C@H]1C[N@@]2CC[C@H]1C[C@H]2[C@H](O)c1ccnc2ccc(OC)cc12 [quinine] | – | – | – | – | – | – | – | activity against malaria / CQ-resistant malaria (in words) [1]: active to various extents against CQ-resistant malaria

Source: patent US5510356A, “Bisquinolines and processes for their production and use to treat malaria” (priority 1991, dated 1996)
